Measured values published in publication PMC5394417, “Investigating the molecular mechanism of positive and negative allosteric modulators in the calcium-sensing receptor dimer” (Scientific Reports, 2017).

Target: T1, HA-F684A CaSR mutant (Rattus norvegicus, UniProt P48442, F684A)
T1 construct: mGluR5 signal peptide (N); expressed in transfected cells; host or cells: HEK293T
T1 sequence (P48442 20-1079 F684A): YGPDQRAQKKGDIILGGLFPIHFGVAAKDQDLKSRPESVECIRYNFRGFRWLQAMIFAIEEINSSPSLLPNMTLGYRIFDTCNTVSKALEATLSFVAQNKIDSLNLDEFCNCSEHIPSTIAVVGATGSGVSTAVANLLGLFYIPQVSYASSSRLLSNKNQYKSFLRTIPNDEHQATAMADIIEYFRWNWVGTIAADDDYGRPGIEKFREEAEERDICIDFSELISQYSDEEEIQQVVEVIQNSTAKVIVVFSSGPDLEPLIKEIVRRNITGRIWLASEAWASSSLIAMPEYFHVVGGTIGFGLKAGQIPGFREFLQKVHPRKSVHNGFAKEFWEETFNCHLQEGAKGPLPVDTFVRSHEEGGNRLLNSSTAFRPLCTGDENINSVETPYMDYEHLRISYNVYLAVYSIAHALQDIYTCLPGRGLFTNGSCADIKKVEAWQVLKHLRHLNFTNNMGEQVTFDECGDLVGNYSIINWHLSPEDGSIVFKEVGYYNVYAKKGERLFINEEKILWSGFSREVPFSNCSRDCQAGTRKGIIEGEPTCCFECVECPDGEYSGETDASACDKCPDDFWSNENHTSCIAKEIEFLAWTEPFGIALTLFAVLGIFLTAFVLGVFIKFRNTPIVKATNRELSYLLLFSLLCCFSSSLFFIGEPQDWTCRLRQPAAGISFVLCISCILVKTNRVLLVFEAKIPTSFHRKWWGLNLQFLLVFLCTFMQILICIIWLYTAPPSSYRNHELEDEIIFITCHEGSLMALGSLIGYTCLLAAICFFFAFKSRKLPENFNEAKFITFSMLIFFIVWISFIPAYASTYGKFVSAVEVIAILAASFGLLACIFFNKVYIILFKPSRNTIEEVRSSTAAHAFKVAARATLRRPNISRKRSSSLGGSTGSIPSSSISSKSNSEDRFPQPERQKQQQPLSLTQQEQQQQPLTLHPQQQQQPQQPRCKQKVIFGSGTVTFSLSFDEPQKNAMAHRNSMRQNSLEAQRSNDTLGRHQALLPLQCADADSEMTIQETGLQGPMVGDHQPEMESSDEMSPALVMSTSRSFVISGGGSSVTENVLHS
Assay: IP-One assay, HEK293T transiently transfected
Format: cell-based

EC50 (Ca^2+ alone): 6.6 mM
pEC50 ± S.E.M. (Ca^2+ alone): 2.18 ± 0.01
Max ± S.E.M. (Ca^2+ alone, normalized to maximum response of WT CaSR): 97 ± 3.4%
EC50 (Ca^2+ with 1 μM NPS R-568): 2.89 mM
pEC50 ± S.E.M. (Ca^2+ with 1 μM NPS R-568): 2.54 ± 0.02
Max ± S.E.M. (Ca^2+ with 1 μM NPS R-568, normalized to maximum response with Ca^2+ alone for the construct): 99 ± 11%
EC50 (Ca^2+ with 5 μM NPS 2143): 8.17 mM
pEC50 ± S.E.M. (Ca^2+ with 5 μM NPS 2143): 2.09 ± 0.004
Max ± S.E.M. (Ca^2+ with 5 μM NPS 2143, normalized to maximum response with Ca^2+ alone for the construct): 70 ± 8.1%
SMILES: [Ca+2] [Ca^2+]
